# Measured values as given in patent US6800465B2, “D-hydantoinase from Ochrobactrum anthropi” (priority 2001, dated 2004).
# B1: hydantoinase: D-hydantoinase from Ochrobactrum anthropi, SEQ ID NO: 2; in Table 3 assayed in glutaraldehyde treated cells (protein, listed as Ochrobactrum anthropi)
# chain: MAKVIKGGTVITADRTFKADVLIEGEKIVAVGDNLSGDEVIDASGCYIMPGGIDPHTHLQMPFMGTYSSDDFDTGTAAALAGGTTMVVDFVLPGSEGNLLEALQEWFQKAGKARTDYSFHMAITGWNERTFNEMAEVVKRGINTFKHFMAYKGALMVNDDEMFASFQRCAELGAMPLVHAENGDIVAQLQAKLMAEGNDGPEAHAYSRPPEVEGEATNRAIMIADQAGVPLYVVHVSCEQSHEAIRRARQKGMRVFGEPLIQHLTLDESEYHNRDWDYAARRVMSPPFRDKANQDSLWAGLAAGSLQCVATDHCAFTTEQKRYGIGNFTKIPNGTGGLEERMPVLWSRGVRTGRLTPNEFVAVTSTNIAKILNIYPQKGAVLPGADADLVIWDPEATRKVSAKTQHSSIDYNVFEGFELKGLPKMTLSRGRVAFDKGNVTAEPGDGRFIEREPNGAVNRALSQWKEIVAPRKVERSAEHMPIGV
# Columns and labels:
# [1] = system: hydantoinase; test: Effect of substrate concentration on rate of conversion by glutaraldehyde treated cells; assay type: biochemical, Ochrobactrum anthropi; settings: pH 8.8, 42° C.; for % Conversion: 6 hours
# Procedure: Incubations were in 200 mM TAPS pH 8.8, 42° C. for 6 hours, and pH adjustments were made back to normal at least every hour.
# [2] = system: hydantoinase; test: Substrate specificity of purified recombinant hydantoinase; assay type: biochemical, Ochrobactrum anthropi; settings: purified recombinant enzyme from E. coli BL21, compound as substrate
# Procedure: E. coli BL21 containing the hydantoinase gene was grown as described in example 4.2. The cells were centrifuged and washed with 100 mM carbonate buffer pH 9.0 and resuspended in the same buffer and ruptured by sonication. The enzyme was purified as described in example 2. The purified enzyme was tested for substrate specificity with various hydantoins as substrate.
# [3] = system: hydantoinase; test: Effect of glutaraldehyde and acetone treatment of whole cells on hydantoinase activity; assay type: biochemical, Ochrobactrum anthropi; settings: treated whole cells; 10 mg/ml D,L-p-hydroxyphenyl hydantoin, pH 8.5, 42° C., 4 hours; Control (buffer only) = 1
# Procedure: Washed cell suspension 0.5 ml aliquots of culture was treated with 0.5 ml glutaraldehyde (G.A.) final concentration 2% in phosphate buffer pH 7.0, or with 0.5 ml G.A. 2% in phosphate buffer and 1 ml acetone, or with 0.5 ml acetone alone at room temperature for 10 minutes. The treated cells were washed with 10 ml 0.9% saline and then with saline +1 mg/ml ammonium sulfate and resuspended in 1 ml 100 mM TAPS buffer pH 8.5. Resuspended cell suspensions were incubated with 10 mg/ml D,L-p-hydroxyphenyl hydantoin in 100 mM TAPS pH 8.5 (final volume 800 μl) at 42° C. for 4 hours. Reactions were terminated with 200 μl TCA 12% and assayed.
# [4] = system: hydantoinase; test: Metal ion requirements of purified hydantoinase; assay type: biochemical, Ochrobactrum anthropi; set-up: Specific activity: unit not given here; settings: hydantoin as substrate, metal ion at 100 mM concentration
# Procedure: Purified hydantoinase was assayed with hydantoin with the addition of the various metal ions at 100 mM concentration.
# [5] = Stability of enzyme at pH 8.8, 9.3 and 9.8; assay type: biochemical, Ochrobactrum anthropi; settings: then assayed at pH 8.8, 42° C.
# Procedure: Glutaraldehyde treated cells from pH profile study were held at pH 8.8, 9.3 and 9.8 for about 4 hours. Solids were washed, resuspended in 25 mM TAPS pH 8.8 and 10 mg/ml D,L-p-hydroxyphenyl hydantoin and incubated at 42° C. for 4 hours. […] Optimum pH of activity at 8.8 in pH profile study was probably due to greater enzyme stability at pH 8.8 rather than pH 9.3 or 9.8.
# [6] = Specific activity of purified hydantoinase; assay type: biochemical, Ochrobactrum anthropi; settings: active band eluant from preparative native gel
# Procedure: Active band eluant from preparative native gel was assayed and protein determined by Pierce Microtiter assay protocol using BSA standard. Specific activity was determined at greater than 4 IU per mg of protein.
# [7] = PI value of hydantoinase by IEF-PAGE; assay type: physicochemical, Ochrobactrum anthropi; settings: IEF-PAGE gel, pH range of 3-9
# Procedure: Active band eluant from preparative native gel was run on the Phast System IEF-PAGE gel with a pH range of 3-9 using low MW protein markers and the gel was silver stained. PI of active band protein was determined at approximately 4.5.
molecule,measurement,setting,value
"O=C1NC(=O)C(c2ccc(O)cc2)N1 (racemic) [D,L-p-hydroxyphenyl hydantoin]",product formed,"[1]; substrate 5 mg/ml, 2¾ hr",1.9 mg/mL
same,product formed,"[1]; substrate 5 mg/ml, 30 min",.56 mg/mL
same,product formed,"[1]; substrate 5 mg/ml, 60 min",1.0 mg/mL
same,product formed,"[1]; substrate 5 mg/ml, 4 hr",2.1 mg/mL
same,product formed,"[1]; substrate 5 mg/ml, 6 hr",2.2 mg/mL
same,% Conversion,[1]; substrate 5 mg/ml,40%
same,product formed,"[1]; substrate 10 mg/ml, 2¾ hr",3.4 mg/mL
same,product formed,"[1]; substrate 10 mg/ml, 30 min",.75 mg/mL
same,product formed,"[1]; substrate 10 mg/ml, 60 min",1.4 mg/mL
same,product formed,"[1]; substrate 10 mg/ml, 4 hr",4.0 mg/mL
same,product formed,"[1]; substrate 10 mg/ml, 6 hr",4.4 mg/mL
same,% Conversion,[1]; substrate 10 mg/ml,40%
same,product formed,"[1]; substrate 20 mg/ml, 2¾ hr",4.0 mg/mL
same,product formed,"[1]; substrate 20 mg/ml, 30 min",.82 mg/mL
same,product formed,"[1]; substrate 20 mg/ml, 60 min",1.5 mg/mL
same,product formed,"[1]; substrate 20 mg/ml, 4 hr",6.2 mg/mL
same,product formed,"[1]; substrate 20 mg/ml, 6 hr",7.7 mg/mL
same,% Conversion,[1]; substrate 20 mg/ml,35%
same,product formed,"[1]; substrate 50 mg/ml, 2¾ hr",4.2 mg/mL
same,product formed,"[1]; substrate 50 mg/ml, 30 min",.95 mg/mL
same,product formed,"[1]; substrate 50 mg/ml, 60 min",1.6 mg/mL
same,product formed,"[1]; substrate 50 mg/ml, 4 hr",6.3 mg/mL
same,product formed,"[1]; substrate 50 mg/ml, 6 hr",9.2 mg/mL
same,% Conversion,[1]; substrate 50 mg/ml,17%
O=C1CNC(=S)N1 [2-thio hydantoin],Specific activity,[2],4.3 IU/mg
CC1NC(=O)NC1=O (centres unmarked) [5-methyl hydantoin],Specific activity,[2],10.6 IU/mg
"CC(C)=O [Acetone, acetone]",Relative Activity,[3],2.8
[Ca+2] [Ca (II)],Specific activity,[4],3.6
[Co+2] [Co (II)],Specific activity,[4],3.6
[Cu+2] [Cu (II)],Specific activity,[4],1.2
"O=C(O)CC1NC(=O)NC1=O (centres unmarked) [D,L hydantoin 5-acetic acid]",Specific activity,[2],1.8 IU/mg
[Fe+2] [Fe (II)],Specific activity,[4],9.3
same,effect on the activity of the enzyme,[4],stimulate the activity
[Fe+3] [Fe (III)],Specific activity,[4],3.8
"O=CCCCC=O [Glutaraldehyde, glutaraldehyde]",Relative Activity,[3],1.2
O=C1CNC(=O)N1 [Hydantoin],Specific activity,[2],7.5 IU/mg
[Mg+2] [Mg (II)],Specific activity,[4],5.2
[Mn+2] [Mn (II)],Specific activity,[4],7.1
same,effect on the activity of the enzyme,[4],stimulate the activity
[Ni+2] [Ni (II)],Specific activity,[4],3.6
O=C(O)CN(CCN(CC(=O)O)CC(=O)O)CC(=O)O [None (EDTA)],Specific activity,[4],4.8
O=c1cc[nH]c(=O)[nH]1 [Uracil],Specific activity,[2],1.8 IU/mg
[Zn+2] [Zn (II)],Specific activity,[4],1.8
"Hydroxymethyl 5,5-dimethyl hydantoin",Specific activity,[2],5.6 IU/mg
p-hydroxymethyl hydantoin,Specific activity,[2],1.9 IU/mg
B1,Relative Activities,[5]; held at pH 8.8 for about 4 hours,1.75
same,Relative Activities,[5]; held at pH 9.3 for about 4 hours,1.17
same,Relative Activities,[5]; held at pH 9.8 for about 4 hours,0.62
same,Specific activity,[6],greater than 4 IU per mg of protein
same,PI,[7],approximately 4.5
